Patent US6624165B2, “Cyclopentene derivatives useful as antagonists of the motilin receptor” (Ortho-McNeil Pharmaceutical, Inc., priority 2000, dated 2003)

Target: T1, motilin receptors located on the colon of mature rabbits (Oryctolagus cuniculus, UniProt G1T803)
T1 construct: The muscle tissues were homogenized in 10 volumes of buffer; from tissue; host or cells: colon smooth muscle of mature New Zealand rabbits, crude membrane homogenate
Experiment: Competition with radiolabeled motilin (porcine) for motilin receptors of rabbit colon membranes
Format: binding
Details: @100 nM, I125 motilin (porcine)
Method: A compound of the invention was tested for its ability to compete with radiolabeled motilin (porcine) for the motilin receptors located on the colon of mature rabbits. The colon from mature New Zealand rabbits was removed, dissected free from the mucosa and serosa layers, and diced into small pieces. The muscle tissues were homogenized in 10 volumes of buffer (50 mM Tris-Cl 10 MM MgCl2, 0.1 mg/mL bactracin, and 0.25 mM Peflabloc, pH 7.5) in a Polytron (29,000 rpm, 4×15 seconds). The homogenate was centrifuged at 1000×g for 15 min. and the supernatant discarded. The pellet was washed twice before being suspended in homogenizing buffer. This crude homogenate was then passed first through a 19 gauge needle then a 23 gauge needle to further suspend the material and stored at −80° C. […] The pellet was counted in the gamma counter to determine the percentage of […] motilin and thereby the percent inhibition of the test compound.
% Inhibition was Determined by Standard Techniques

T1 sequence (G1T803 1-400): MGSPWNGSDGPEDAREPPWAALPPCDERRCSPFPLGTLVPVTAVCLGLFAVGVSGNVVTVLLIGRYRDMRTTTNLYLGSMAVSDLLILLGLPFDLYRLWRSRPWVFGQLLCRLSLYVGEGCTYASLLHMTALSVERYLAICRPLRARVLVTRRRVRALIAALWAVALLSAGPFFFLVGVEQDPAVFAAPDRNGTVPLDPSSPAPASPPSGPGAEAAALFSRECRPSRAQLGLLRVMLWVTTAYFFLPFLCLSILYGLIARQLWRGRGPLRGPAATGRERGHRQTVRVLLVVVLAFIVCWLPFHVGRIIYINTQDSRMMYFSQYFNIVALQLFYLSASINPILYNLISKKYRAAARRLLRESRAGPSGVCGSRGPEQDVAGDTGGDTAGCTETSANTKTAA

% Inhibition: 17%
Structure (SMILES): O=C(Nc1nncs1)N(CC1=CC(Cc2ccccc2)(NC(=O)C(Cl)(Cl)Cl)CC1)c1cccc(OCCN2CCOCC2)c1 (stereo not shown) [Example 2, 3-Benzyl-3-trichloroacetylamino—N-[(3-(2-morpholinoethoxy)phenyl)-N-[(1,3,4-thiadiazol-2-yl)aminocarbonyl)amino]methylcyclopentene]
